# US8633301B2, “Antitumor combinations containing antibodies recognizing specifically CD38 and vincristine” (Sanofi, priority 2008, dated 2014)
# “And” between values parts separate entries of the source, which are not always exact repeats. Equal entries are not always repeated. “Also recorded” adds a separate entry of the source.
# Experiments:
# [1] = Toxicity (body weight change, drug death) in DND-41 tumor-bearing SCID mice; assay type: in vivo
# [2] = tested on: human T-cell acute lymphoblastic leukemia (T-ALL) cell line, DND-41; assay: Antitumor efficacy against advanced DND-41 tumors implanted in SCID mice; conditions: for T-C (tumor growth delay): time to reach 750 mg; for TFS (tumor free survivors): end of study day 160
# Experimental: A product is considered to be active if log10 cell kill is greater than or equal to 0.7. A product is considered to be very active if log10 cell kill is greater than or equal to 2.8.
# The animals subjected to the experiment, generally mice, are subcutaneously grafted bilaterally with 30 to 60 mg of a tumor fragment on day 0. The animals bearing tumors are randomized based on their tumor size before being subjected to the various treatments and controls. Chemotherapy begins when tumors have reached a predetermined size after grafting, depending on the type of tumor, and the animals are observed every day. […] The groups are then weighed once or twice a week until the end of the trial.
# The tumors are measured 1 to 5 times a week, depending on the tumor doubling time, until the tumor reaches approximately 2 g, or until the animal dies (if this occurs before the tumor reaches 2 g). The animals are necropsied immediately after euthanasia or death.
# The selected tumor model was a transplantable human T-cell acute lymphoblastic leukemia (T-ALL) cell line, DND-41, implanted in SCID mice.
# Vincristine was formulated in 5% glucose in water.
# Tumor doubling time=3.4 days.
# murine CD38 = biological target: T1, murine CD38 (Mus musculus, UniProt P56528); assay: Cross-reactivity of the antibody with murine CD38; assay type: binding
# T1 sequence (P56528 1-304): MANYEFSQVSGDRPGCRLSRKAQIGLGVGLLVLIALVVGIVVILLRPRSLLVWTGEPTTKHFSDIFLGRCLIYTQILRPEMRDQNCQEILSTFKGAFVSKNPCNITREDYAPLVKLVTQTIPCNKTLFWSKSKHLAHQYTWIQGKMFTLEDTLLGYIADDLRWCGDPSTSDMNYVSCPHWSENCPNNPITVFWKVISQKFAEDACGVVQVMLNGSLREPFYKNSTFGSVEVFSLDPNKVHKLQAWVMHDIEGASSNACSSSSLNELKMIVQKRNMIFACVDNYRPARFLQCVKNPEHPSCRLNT
# [3] = vincristine alone 0.3 mg/kg/inj (total 1.2) IV
# [4] = vincristine alone 0.5 mg/kg/inj (total 2.0) IV
# [5] = vincristine alone 0.8 mg/kg/inj (total 3.2) IV
# [6] = vincristine alone 0.3 mg/kg/inj IV
# [7] = vincristine alone 0.5 mg/kg/inj IV
# [8] = vincristine alone 0.8 mg/kg/inj IV
# [9] = hu38SB19 alone 40.0 mg/kg/inj (total 160.0) IV days 18, 21, 24, 27
# [10] = hu38SB19 alone 40.0 mg/kg/inj IV
compound,measurement,setting,value
"CC[C@]1(O)C[C@H]2CN(CCc3c([nH]c4ccccc34)[C@@](C(=O)OC)(c3cc4c(cc3OC)N(C=O)[C@H]3[C@@](O)(C(=O)OC)[C@H](OC(C)=O)[C@]5(CC)C=CCN6CC[C@]43[C@@H]65)C2)C1 [vincristine, Vincristine]",BWC (body weight change) at nadir,[1]; [3],−0.4%
same,drug death,"[1]; vincristine alone 0.3 mg/kg/inj (total 1.2) IV days 18, 21, 24, 27",0/6
same,BWC (body weight change) at nadir,[1]; [4],−5.3%
same,drug death,"[1]; vincristine alone 0.5 mg/kg/inj (total 2.0) IV days 18, 21, 24, 27",0/6
same,BWC (body weight change) at nadir,[1]; [5],−10.4%
same,drug death,"[1]; vincristine alone 0.8 mg/kg/inj (total 3.2) IV days 18, 21, 24, 27",0/6
same,BWC (body weight change) at nadir,[1]; vincristine alone 1.3 mg/kg/inj (total 5.2) IV,−25.2%
same,drug death,"[1]; vincristine alone 1.3 mg/kg/inj (total 5.2) IV days 18, 21, 24, 27",0/6
same,comments (activity/toxicity rating),[1]; vincristine alone 1.3 mg/kg/inj IV,Toxic (−25% BWC)
same,body weight loss at nadir,"[1]; vincristine alone 1.3 mg/kg/injection, nadir on day 27",25.2%
same,highest nontoxic dose (HNTD),"[1]; vincristine alone IV days 18, 21, 24, 27, total injected dose 3.2 mg/kg",0.8 mg/kg/inj
same,log10 cell kill,[2]; [3],1.4
same,T-C (tumor growth delay),[2]; [3],15.6 days
same,comments (activity/toxicity rating),[2]; [6],remained active
same,TFS (tumor free survivors),[2]; [6],0/6
same,log10 cell kill,[2]; [4],3.8
same,T-C (tumor growth delay),[2]; [4],43.3 days
same,comments (activity/toxicity rating),[2]; [7],Highly active
same,TFS (tumor free survivors),[2]; [7],no TFS and 0/6
same,log10 cell kill,[2]; [5],4.4
same,T-C (tumor growth delay),[2]; [5],49.6 days
same,comments (activity/toxicity rating),[2]; [8],HNTD - Highly active
same,TFS (tumor free survivors),[2]; [8],no TFS and 0/6
"hu38SB19: humanized anti-CD38 monoclonal antibody 38SB19; VH SEQ ID NO: 66, VL SEQ ID NO: 62 or 64",cross-reactivity with murine CD38,murine CD38,lack of cross-reactivity
same,tolerability / toxicity,[1]; hu38SB19 alone 40 mg/kg/inj,well tolerated
same,BWC (body weight change) at nadir,[1]; [9],−2.1%
same,drug death,[1]; [9],0/6
same,log10 cell kill,[2]; [9],0.5
same,T-C (tumor growth delay),[2]; [9],6.1 days
same,comments (activity/toxicity rating),[2]; [10],not active; also recorded: HDT- Inactive
same,TFS (tumor free survivors),[2]; [10],0/6
